Measurements as given in patent publication US5334595A, “Pyrazoloquinolones as anticancer agents” (priority 1992, dated 1994).
Like-named read-outs stand apart in the source and are kept apart here.

Legend:
[1] = tested on: P388 murine leukemia cells; test: In vitro cytotoxicity, one-hour exposure, clonogenic survival of P388 cells; type: cell-based; settings: Mus musculus, read-out: in vitro cytotoxicity IC50, 1 hr exp.; P388, 1 hr exposure
Description: (§1) In vitro cytotoxicity was assayed by determining cell survival following exposure of P388 murine leukemia cells to a range of test compound concentrations. Cytotoxicity was quantitated following either a one-hour exposure or continuous exposure of P388 cells to test compound.
(§2) A Manual of Basic Technique. […] Briefly, following drug exposure cells were plated in soft agar and incubated (37°, 5% CO2) for 7-10 days during which time viable cells form visible colonies. Cytotoxicity following continuous exposure of cells to test compound was assayed by quantitating total P388 cells on a Coultier Counter following a 48-hour co-incubation of test compound with cells. P388 cells were maintained in log phase throughout the duration of cytotoxicity assays.
(§3) The percentage of cells surviving relative to an untreated control was graphed as a function of increasing drug concentration.

human topoisomerase II = biological target: T1, human topoisomerase II (Homo sapiens, UniProt P11388); test: Mammalian topoisomerase II inhibition assay (topo II covalently attached to DNA, relative to mAMSA); type: biochemical; settings: read-out: topo II inh. EC50
T1 construct: Topo II was purified from late log phase suspension cultures of HeLa WIS; endogenous in cells; host or cells: HeLa WIS
Source text: The inhibition of human topoisomerase II (hereafter topo II) was quantitated by a procedure adapted from that described by Trask et al., EMBO J., 3, 671-676 (1984). The assay quantitates the amount of topo II covalently attached to DNA at equilibrium during a topo II reaction. This assay determines the potential of a compound to stabilize this complex, which potential is closely related to the cytotoxicity of the compound.
Topo II was purified from late log phase suspension cultures of HeLa WIS by an adaptation of the method described by Per et al., Mol. Pharmacol., 32, 17-25 (1987).
Assays (in duplicate) were assembled at 4° C. Assay mix (25 μl) was distributed in Beckman (No. 265270) 1.5 mL microtiter tubes followed by the addition of 5 μl test compound to yield the final concentrations of assay components:
The assay mix including the test compound was incubated for 20 minutes at 37° C. The reaction was terminated at 37° C. by the addition of 3 μl 10% SDS followed by the addition of 266 μl 10 mM Tris-Cl pH 7.5, 20 μg/ml BSA, 20 μg/ml calf thymus DNA, 1% SDS.
A SDS/protein precipitate was formed by the addition of 28 μl 2.5M KCl followed by chilling on ice for a minimum of 10 minutes. The precipitate was collected and washed with a Brandell cell harvester on a GFB glass fiber filter membrane as follows. The contents of the assay tube were drawn up into the harvester. The tube was then rinsed 7× with 10 mM Tris-Cl pH 7.5, 1 mM EDTA and 100 mM KCl. The precipitate was washed with 1 L of a solution of 10 mM Tris-Cl pH 7.5, 1 mMEDTA, 100 mM KCl followed by 1 L of 95% ethyl alcohol and finally 0.5 L 70% of ethyl alcohol (per 48 samples in each case). After drying, CPM was determined by liquid scintillation counting with 5 ml Biofluor (NEN Research Products) or Readisafe (Beckman Instruments Inc.) cocktail.
Preparation of test compound--A stock solution (6 mg/ml) of test compound was prepared either in 0.1N sodium hydroxide or 0.2N hydrogen chloride. This solution then was diluted 1/5 into water and serially thereafter in either 0.02N sodium hydroxide or 0.04N hydrogen chloride, respectively. The stock solution and serial dilution of the test compound was stored at -20° C. prior to testing.
Screening of test compound--As an initial screen, the test compound was tested at a final concentration of 2, 20 and 200 μg/ml. The compound was then retested at a range of concentrations (usually 2-3×steps) bridging their approximate EC50 's, as estimated by the prescreen.
Controls--A solvent control which indicates the base level of topo II-DNA complex formed in the absence of the test compound was included in each test. A control, in which topo II was omitted, was included for each test compound at the highest drug concentration tested.
Reference Agent--A dose response curve with mAMSA at 0.01, 0.08, 0.16, 0.32, 1.0 and 10 μg/ml was included in each test.
The maximal DNA-topo II complex formed is taken as that equal to that formed at the nearly saturating dose of mAMSA (10 μg/ml).

[2] = tested on: P388 murine leukemia cells; test: In vitro cytotoxicity, continuous (48-hour) exposure of P388 cells; type: cell-based; settings: Mus musculus; P388, continuous exposure (48-hour); read-out: in vitro cytotoxicity IC50, cont. exp.
Description: as §1, §2, §3

[3] = conc. achieving 50% of maximal effect of mAMSA, topo II from HeLa cells
[4] = footnote c: bell-shaped dose response curve noted, 50% of maximal effect of mAMSA

T1 sequence (P11388 whole entry): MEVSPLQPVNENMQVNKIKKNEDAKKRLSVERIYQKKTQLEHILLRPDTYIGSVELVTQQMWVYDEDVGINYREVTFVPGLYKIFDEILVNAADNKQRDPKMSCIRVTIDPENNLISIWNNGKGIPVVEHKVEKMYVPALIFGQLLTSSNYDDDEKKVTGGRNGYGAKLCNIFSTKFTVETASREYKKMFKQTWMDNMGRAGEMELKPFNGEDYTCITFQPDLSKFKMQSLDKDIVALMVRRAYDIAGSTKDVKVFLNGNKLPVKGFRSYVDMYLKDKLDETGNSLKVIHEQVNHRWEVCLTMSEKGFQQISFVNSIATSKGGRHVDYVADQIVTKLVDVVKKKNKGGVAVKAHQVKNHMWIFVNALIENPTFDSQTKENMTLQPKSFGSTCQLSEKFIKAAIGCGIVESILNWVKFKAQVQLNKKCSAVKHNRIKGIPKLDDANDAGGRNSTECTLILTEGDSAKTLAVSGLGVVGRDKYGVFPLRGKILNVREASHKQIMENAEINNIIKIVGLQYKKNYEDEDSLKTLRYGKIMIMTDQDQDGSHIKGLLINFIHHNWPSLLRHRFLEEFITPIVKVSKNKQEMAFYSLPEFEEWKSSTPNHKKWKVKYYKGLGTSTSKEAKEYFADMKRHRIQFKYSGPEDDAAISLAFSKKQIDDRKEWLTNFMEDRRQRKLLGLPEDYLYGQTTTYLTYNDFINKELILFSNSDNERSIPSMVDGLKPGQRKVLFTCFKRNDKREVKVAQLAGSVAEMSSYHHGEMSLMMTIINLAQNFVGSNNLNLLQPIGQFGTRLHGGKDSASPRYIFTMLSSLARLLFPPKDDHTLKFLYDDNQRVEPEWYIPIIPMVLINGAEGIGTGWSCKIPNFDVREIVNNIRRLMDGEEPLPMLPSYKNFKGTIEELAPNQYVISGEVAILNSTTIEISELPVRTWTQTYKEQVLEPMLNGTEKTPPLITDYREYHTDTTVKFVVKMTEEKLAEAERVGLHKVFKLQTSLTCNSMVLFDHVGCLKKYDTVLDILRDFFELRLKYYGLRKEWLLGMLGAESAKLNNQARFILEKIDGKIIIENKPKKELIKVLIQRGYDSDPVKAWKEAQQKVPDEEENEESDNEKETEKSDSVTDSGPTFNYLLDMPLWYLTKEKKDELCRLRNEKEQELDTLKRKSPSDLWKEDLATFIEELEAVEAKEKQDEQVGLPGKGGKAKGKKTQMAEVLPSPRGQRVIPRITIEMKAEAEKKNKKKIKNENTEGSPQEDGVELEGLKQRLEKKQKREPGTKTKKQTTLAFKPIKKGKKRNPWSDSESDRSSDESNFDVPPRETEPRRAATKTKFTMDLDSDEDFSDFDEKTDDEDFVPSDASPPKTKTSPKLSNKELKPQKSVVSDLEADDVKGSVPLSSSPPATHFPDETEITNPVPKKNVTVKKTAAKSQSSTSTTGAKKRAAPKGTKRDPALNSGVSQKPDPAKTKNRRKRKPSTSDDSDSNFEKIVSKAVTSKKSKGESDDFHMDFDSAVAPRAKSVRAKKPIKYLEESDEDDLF

## CO[C@@H]1CCCC[C@@H]1n1nc2c3cc(F)c(-c4cc(C)nc(C)c4)c(F)c3n(C3CC3)cc-2c1=O (relative stereo) [Example 45]
[1]
  IC50: 0.57 µM
Human topoisomerase II; [3]
  EC50: 6.3 µM

## Cc1cc(-c2c(F)cc3c4nn(CC(F)(F)F)c(=O)c-4cn(C4CC4)c3c2F)cc(C)n1 [Example 2]
[2]
  IC50: 1.4 µM
Human topoisomerase II; [3]
  EC50: 6.8 µM

## Cc1cc(-c2c(F)cc3c4nn(C(C)C)c(=O)c-4cn(C4CC4)c3c2F)cc(C)n1 [Example 3, 5-Cyclopropyl-6,8-difluoro-7-(2,6-dimethyl-4-pyridinyl)-2,5-dihydro-2-(2-propyl) -3H-pyrazolo[4,3-c]quinolin-3-one]
[2]
  IC50: 0.53 µM
Human topoisomerase II; [3]
  EC50: 5 µM

## CCCCn1nc2c3cc(F)c(-c4cc(C)nc(C)c4)c(F)c3n(C3CC3)cc-2c1=O [Example 4, 2-(1-Butyl)-5-cyclopropyl-6,8-difluoro-2,5-dihydro-7-(2,6-dimethyl-4-pyridinyl) -3H-pyrazolo[4,3-c]quinolin-3-one]
[2]
  IC50: 1.5 µM
Human topoisomerase II; [3]
  EC50: 2.9 µM

## Cc1cc(-c2c(F)cc3c4nn(-c5ccccc5O)c(=O)c-4cn(C4CC4)c3c2F)cc(C)n1 [Example 5, 5-Cyclopropyl-6,8-difluoro-2,5-dihydro-2-(2-hydroxyphenyl)-7-(2,6-dimethyl-4-pyridinyl) -3H-pyrazolo[4,3-c]quinolin-3-one]
[2]
  IC50: 0.15 µM
Human topoisomerase II; [3]
  EC50: 1.2 µM

## Cc1cc(-c2c(F)cc3c4nn(C)c(=O)c-4cn(C4CC4)c3c2F)cc(C)n1 [Example 7]
[2]
  IC50: 0.51 µM
Human topoisomerase II; [3]
  EC50: 5.9 µM

## Cc1cc(-c2c(F)cc3c4nn(C(C)(C)C)c(=O)c-4cn(C4CC4)c3c2F)cc(C)n1 [Example 8]
[2]
  IC50: 3.5 µM
Human topoisomerase II; [3]
  EC50: 6.9 µM

## CCOC(=O)Cn1nc2c3cc(F)c(-c4cc(C)nc(C)c4)c(F)c3n(C3CC3)cc-2c1=O [Example 9]
[2]
  IC50: 0.15 µM
Human topoisomerase II; [3]
  EC50: 6.1 µM

## Cc1cc(-c2c(F)cc3c4nn(CCO)c(=O)c-4cn(C4CC4)c3c2F)cc(C)n1 [Example 10]
[2]
  IC50: 1.4 µM
Human topoisomerase II; [3]
  EC50: 6.4 µM

## Cc1cc(-c2c(F)cc3c4nn(CCCCO)c(=O)c-4cn(C4CC4)c3c2F)cc(C)n1 [Example 11]
[2]
  IC50: 0.88 µM
Human topoisomerase II; [3]
  EC50: 4.2 µM

## COC(Cn1nc2c3cc(F)c(-c4cc(C)nc(C)c4)c(F)c3n(C3CC3)cc-2c1=O)OC [Example 12]
Human topoisomerase II; [3]
  EC50: 23 µM

## Cc1cc(-c2c(F)cc3c4nn(CCC#N)c(=O)c-4cn(C4CC4)c3c2F)cc(C)n1 [Example 13]
[2]
  IC50: 1.4 µM
Human topoisomerase II; [3]
  EC50: 6.7 µM

## CCN(CC)CCn1nc2c3cc(F)c(-c4cc(C)nc(C)c4)c(F)c3n(C3CC3)cc-2c1=O [Example 15]
[1]
  IC50: 0.45 µM
Human topoisomerase II
  EC50: 93 µM

## Cc1cc(-c2c(F)cc3c4nn(CCN5CCCCC5)c(=O)c-4cn(C4CC4)c3c2F)cc(C)n1 [Example 19]
[1]
  IC50: 0.44 µM
Human topoisomerase II
  EC50: 210 µM

## Cc1ccc(-n2nc3c4cc(F)c(-c5cc(C)nc(C)c5)c(F)c4n(C4CC4)cc-3c2=O)cc1 [Example 24]
[2]
  IC50: 4.9 µM
Human topoisomerase II; [3]
  EC50: 8.9 µM

## Cc1cc(-c2c(F)cc3c4nn(-c5c(F)c(F)c(F)c(F)c5F)c(=O)c-4cn(C4CC4)c3c2F)cc(C)n1 [Example 25]
[2]
  IC50: 2.2 µM
Human topoisomerase II; [3]
  EC50: 3.4 µM

## COc1ccccc1-n1nc2c3cc(F)c(-c4cc(C)nc(C)c4)c(F)c3n(C3CC3)cc-2c1=O [Example 26]
[2]
  IC50: 0.34 µM
Human topoisomerase II; [3]
  EC50: 5 µM

## Cc1cc(-c2c(F)cc3c4nn(-c5ccc(O)cc5)c(=O)c-4cn(C4CC4)c3c2F)cc(C)n1 [Example 27]
[2]
  IC50: 2.6 µM
Human topoisomerase II; [3]
  EC50: 4.9 µM

## Cc1cc(-c2c(F)cc3c4nn(-c5cccc6ccccc56)c(=O)c-4cn(C4CC4)c3c2F)cc(C)n1 [Example 28]
[2]
  IC50: 0.32 µM
Human topoisomerase II; [3]
  EC50: 2.9 µM

## Cc1cc(-c2c(F)cc3c4nn(-c5ccccn5)c(=O)c-4cn(C4CC4)c3c2F)cc(C)n1 [Example 29]
[2]
  IC50: 0.74 µM
Human topoisomerase II; [3]
  EC50: 2.8 µM

## Cc1cc(-c2c(F)cc3c4nn(-c5ccncc5)c(=O)c-4cn(C4CC4)c3c2F)cc(C)n1 [Example 30]
[2]
  IC50: 1.2 µM
Human topoisomerase II; [4]
  EC50: 8 µM

## Cc1cc(-c2c(F)cc3c4nn(Cc5ccccc5)c(=O)c-4cn(C4CC4)c3c2F)cc(C)n1 [Example 31]
[2]
  IC50: 0.14 µM
Human topoisomerase II; [3]
  EC50: 3.7 µM

## COc1ccccc1Cn1nc2c3cc(F)c(-c4cc(C)nc(C)c4)c(F)c3n(C3CC3)cc-2c1=O [Example 32]
[2]
  IC50: 1.2 µM
Human topoisomerase II; [3]
  EC50: 5.1 µM

## Cc1cc(-c2c(F)cc3c4nn(Cc5ccccc5O)c(=O)c-4cn(C4CC4)c3c2F)cc(C)n1 [Example 33]
[2]
  IC50: 1.4 µM
Human topoisomerase II; [3]
  EC50: 3.8 µM

## COc1ccc(Cn2nc3c4cc(F)c(-c5cc(C)nc(C)c5)c(F)c4n(C4CC4)cc-3c2=O)cc1 [Example 34]
[2]
  IC50: 0.44 µM
Human topoisomerase II; [3]
  EC50: 3.2 µM

## Cc1cc(-c2c(F)cc3c4nn(Cc5ccc(O)cc5)c(=O)c-4cn(C4CC4)c3c2F)cc(C)n1 [Example 35]
[2]
  IC50: 0.25 µM
Human topoisomerase II; [3]
  EC50: 1.5 µM

## COc1cc(Cn2nc3c4cc(F)c(-c5cc(C)nc(C)c5)c(F)c4n(C4CC4)cc-3c2=O)cc(OC)c1OC [Example 36]
[2]
  IC50: 1.2 µM
Human topoisomerase II; [3]
  EC50: 6.4 µM

## Cc1cc(-c2c(F)cc3c4nn(CCc5ccccc5)c(=O)c-4cn(C4CC4)c3c2F)cc(C)n1 [Example 37]
[2]
  IC50: 2.2 µM
Human topoisomerase II; [3]
  EC50: 5 µM

## COc1ccccc1CCn1nc2c3cc(F)c(-c4cc(C)nc(C)c4)c(F)c3n(C3CC3)cc-2c1=O [Example 38]
Human topoisomerase II; [3]
  EC50: 11 µM

## Cc1cc(-c2c(F)cc3c4nn(CCc5ccccc5O)c(=O)c-4cn(C4CC4)c3c2F)cc(C)n1 [Example 39]
Human topoisomerase II; [4]
  EC50: 9.6 µM

## Cc1cc(-c2c(F)cc3c4nn(C5CCc6ccccc6C5)c(=O)c-4cn(C4CC4)c3c2F)cc(C)n1 (centres unmarked) [Example 44]
[2]
  IC50: 1.5 µM
Human topoisomerase II; [3]
  EC50: 3.7 µM

## Cc1cc(-c2c(F)cc3c4nn(C5CCC(C)CC5)c(=O)c-4cn(C4CC4)c3c2F)cc(C)n1 (centres unmarked) [Example 47]
[1]
  IC50: 1.4 µM
Human topoisomerase II; [3]
  EC50: 3.1 µM

## Cc1cc(-c2c(F)cc3c4nn(C5CCC(c6ccccc6)CC5)c(=O)c-4cn(C4CC4)c3c2F)cc(C)n1 (centres unmarked) [Example 48]
[1]
  IC50: 8.4 µM
Human topoisomerase II; [3]
  EC50: 4.5 µM

## Cc1cc(-c2c(F)cc3c4nn(CC(=O)O)c(=O)c-4cn(C4CC4)c3c2F)cc(C)n1 [Example 53, 2-[5-Cyclopropyl-6,8-difluoro-2,5-dihydro-7-(2,6-dimethyl-4-pyridinyl)-3-oxo-3H-pyrazolo[4,3-c]quinolinyl]acetic acid]
[2]
  IC50: 18 µM
Human topoisomerase II; [3]
  EC50: 10 µM
